Publication PMC9433906, “Evaluation of the biotechnological potential of peptide Cupiennin 1a and analogs” (Frontiers in Microbiology, 2022)
Values after ≈ are worked out from the molar mass of the structure shown. Where a SMILES comes first, the peptide text is derived from it.

How the values were obtained:
RAW 264.7 cells = assay: MTT cytotoxicity test against RAW 264.7; format: cell-based, mice; settings: 24 h
Description: The cell line RAW 264.7 was obtained from the Rio de Janeiro Cell Bank (CR108). These cells are macrophages derived from induced tumors in male BALB/c mice infected with Abelson’s murine leukemia virus ([Raschke et al., 1978]). RAW264.7 cells were grown in DMEM medium (Dulbecco’s Modified Eagle’s medium, composed of CaCl2 (anhydrous) 200 mg.ml^−1, Fe(NO3).9H2O 0.1 mg.ml^−1, KCL 400 mg.ml^−1, MgSO4 (anhydrous) 97.67 mg.ml^−1, NaCL 6.400 mg.ml^−1, NaH2PO4.H2O 125 mg.ml^−1) supplemented with 10% (v/v) of bovine fetal serum, 0.5% (v/v) of DMEM amino acid solution, 0.05% (w/v) gentamicin, 0.5% (w/v) of L-glutamine, and 0.5% (w/v) of penicillin/streptomycin (1,000 U.ml^−1) in an incubator containing 5% CO2, at 37°C, and 95% humidity ([Raschke et al., 1978]; [Nguyen et al., 2017]).
RAW 264.7 cells were seeded in 96-well plates, at a concentration of 10^4 cells/well, and incubated for 24 h. Each peptide was subsequently added at different micromolar concentrations (Table 1). Positive control was performed by cells in culture medium and negative control, as cell culture in lysis solution (10 mM Tris, 1 mM EDTA, and 0.1% Triton X-100, pH 7.4).
Cell viability analyses were performed in technical and biological replicates, and readings were obtained after 24 h of contact with peptides. At the end of the incubation period, MTT (Sigma-Aldrich, United States) was used to assess the ability of living cells to reduce salt 3-[4,5-dimethylthiazole-2-yl]-2,5-diphenyltetrazolium bromide for formazan production. Plates were read at 570 ηm ([Mosmann, 1983]) and results were expressed in the percentage of living cells. The results were analyzed using GraphPad Prism 8 software where a One-Way ANOVA statistical test was followed by Bonferroni’s multiple comparisons test.

[1] = test system: C. parapsilosis (ATCC22019); assay: Broth microdilution MIC (CLSI M27-A3 with modifications); format: cell-based, Candida parapsilosis; settings: 2.5 × 10^3 CFU.ml^−1, Sabouraud medium, 24 h at 30°C, absorbance 595 nm
Description: The broth microdilution method was performed according to the Clinical and Laboratory Standards Institute Guideline M27-A3 with modifications to determine the Minimum Inhibitory Concentration (MIC; [Clinical Laboratory Standards Institute, 2008]).
Initially, the fungus C. parapsilosis (ATCC22019) was grown in a Petri dish containing Sabouraud Dextrose Agar medium (Dextrose 40 g/L; Peptic digestion of animal tissue 5.0 g.L^−1; and Agar 15 g.L^−1) for 48 h. Subsequently, a pre-inoculum was performed from a yeast colony that was placed in 10 ml of liquid Sabouraud medium and incubated for 16 h at 28°C, with a constant rotation of 200 rpm. After the incubation period, 2.5 × 10^3 CFU.ml^−1 of fungus per well was incubated with different peptide micromolar concentrations (Table 1) to assess the MIC for each peptide.
Fungal cells incubated with Sabouraud medium were used as negative control, while positive control was represented by fungal cells incubated in Sabouraud medium and amphotericin B (10 μM). Subsequently, plates were incubated for 24 h at 30°C. After this period, the absorbance was read (595 nm) in a BioTek spectrophotometer (PowerWaveTM HT Microplate Reader), and data of antifungal activity with percentage of inhibition of peptides were plotted in GraphPad Prism 8 Software.

[2] = test system: K. pneumoniae (ATCC 13883); format: cell-based, Klebsiella pneumoniae; settings: K. pneumoniae (ATCC13883); 5×10^5 CFU.ml^−1, Mueller-Hinton Broth, 37°C, 24 h, OD 595 nm, biological triplicates
Description: (§1) Susceptibility tests were performed using clinical isolates of Klebsiella pneumoniae carbapenemase (KPC 1410503) and methicillin-resistant S. aureus (MRSA 3730592). Tests were also performed with ATCC (American Type Culture Collection) isolates of K. pneumoniae (ATCC 13883) and S. aureus (ATCC 25923).
(§2) Two multidrug-resistant clinical isolates and two ATCC isolates were chosen to perform microbial susceptibility testing as models for studies with bacteria susceptible to antimicrobials found in the Gram-Positive and Gram-Negative groups of bacteria.
(§3) The broth microdilution method was performed according to the Clinical and Laboratory Standards Institute (CLSI) M07-A10 protocol to determine the Minimum Inhibitory Concentration (MIC; [Clinical Laboratory Standards Institute, 2015]). The assay was performed on 96-well microplates (TPP, United States), containing 5×10^5 CFU.ml^−1 of each tested bacterium per well and different peptide micromolar concentrations (Table 1) in a final volume of 100 μl of Mueller-Hinton Broth (MH). Negative control was represented by bacteria incubated in MH medium, while positive control was represented by culture incubated in MH medium with Amikacin. Plates were kept under agitation at 37°C in a BioTek spectrophotometer (PowerWaveTM HT Microplate Reader) with optical density (OD) readings at 595 nm every 30 min for 24 h. Inhibition results were analyzed using GraphPad Prism 8 software by comparing the OD from negative control wells (100%) to those containing peptides. All tests were performed in biological triplicates.

[3] = test system: methicillin-resistant S. aureus (MRSA 3730592); format: cell-based, Staphylococcus aureus; settings: Methicillin-Resistant S. aureus—MRSA clinical isolate 3730592; 5×10^5 CFU.ml^−1, Mueller-Hinton Broth, 37°C, 24 h, OD 595 nm, biological triplicates
Description: as §1, §2, §3

S. aureus (ATCC 25923) = format: cell-based, Staphylococcus aureus; settings: S. aureus (ATCC25923); 5×10^5 CFU.ml^−1, Mueller-Hinton Broth, 37°C, 24 h, OD 595 nm, biological triplicates
Description: as §1, §2, §3

[4] = test system: Klebsiella pneumoniae carbapenemase (KPC 1410503); format: cell-based; settings: K. pneumoniae carbapenemase—KPC clinical isolate 1410503; 5×10^5 CFU.ml^−1, Mueller-Hinton Broth, 37°C, 24 h, OD 595 nm, biological triplicates; NE = MIC value not found
Description: as §1, §2, §3

[5] = test system: Spodoptera frugiperda (SF21) cells; assay: In vitro test against insect cells (MTT); format: cell-based; settings: lowest concentration tested (1 μM), 24 h
Description: To evaluate the ability of the peptides to cause lysis and morphological changes in insect cells ([Dutra, 2019]; Patent: BR 102022 006138 6) as a first screening of the insecticidal activity of the peptides, in this work, the Spodoptera IPLB-SF-21AE _LVI-Cenargen cell line ([Vaughn et al., 1977]) was used and different concentrations of the peptides were added to the culture medium.
Cells were maintained at 27°C in TNMFH medium (Grace’s insect medium supplemented with lactalbumin hydrolyzate and yeastolate), supplemented with 10% (v/v) fetal bovine serum (Sigma-Aldrich; [Castro et al., 2006]).
Cell cultivation was carried out in 10 ml culture bottles, model K11-1050 25cm^2, with 5 ml of culture medium per bottle. For the assays, the SF21 cells were grown in TNMFH medium, added 10% (v/v) of bovine fetal serum, and distributed in plates of 96 wells at the concentration of 2×10^4 cells per well, after counting was performed in the Neubauer chamber. Cell suspension was distributed in a volume of 100 μl per well. Peptides were diluted in TNMFH medium and 100 μl of medium with peptide was added, obtaining concentrations of 10, 5, and 1 μM, reaching the volume of 200 μl at the final concentrations of reaction per well. Cells were placed in incubation at 27°C, for 24 h.
After 24 h, the cells were analyzed for their modifications, morphological alterations, turbidity of the medium, formation of clumps, and/or lysis in the presence of peptides, by observation under optical microscopy (Nikon Eclipse TS100) with 20× and 40× magnification. Characteristics that could represent cell death or cell dysfunction caused by the peptides were observed compared to control cells. Cells were evaluated by cell viability using the MTT test 3-[4,5-dimethylthiazole-2-yl]-2,5-diphenyltetrazolium bromide 0.5 mg.ml^−1 (Sigma-Aldrich). To perform the test, the cell culture medium was discarded, and we added 100 μl of new medium. Ten μl of MTT was added to each well and incubated for 4 h, with the plates protected from light. After 4 h, we added 100 μl of DMSO to each well to dissolve the formazan crystals, and the reading in the microplate reader ([Riss et al., 2016]) was then performed. The results were analyzed using GraphPad Prism 8 software, where a One-Way ANOVA statistical test was followed by Bonferroni’s multiple comparisons test.

SMILES | viable cells (RAW264.7) in the MIC found for MRSA, S. aureus ATCC25923 and C. parapsilosis ATCC22019 (RAW 264.7 cells; at the MIC of R1a for these strains (15.81 μM in Table 3)) | toxicity on RAW264.7 macrophages in the concentration range of 33.77 μM (in words) (RAW 264.7 cells; concentration range of 33.77 μM) | Minimum inhibitory concentration (MIC) [1] | Minimum inhibitory concentration (MIC) [2] | Minimum inhibitory concentration (MIC) [3] | Minimum inhibitory concentration (MIC) (S. aureus (ATCC 25923)) | Minimum inhibitory concentration (MIC) [4] | viable cells (RAW264.7) (RAW 264.7 cells; 33.77 μM) | toxicity to RAW264.7 cells at the MIC concentration (in words) (RAW 264.7 cells; R1b: MIC found for KPC1410503, R3b: MIC at high concentrations against all tested microorganisms) | cell viability (SF21) [5] | cell viability (RAW264.7) in the MIC found for MRSA3730592, S. aureus ATCC25923, K. pneumoniae ATCC13883 (RAW 264.7 cells; at the MIC of R2b for these strains (17.15 μM in Table 3)) | toxicity against RAW264.7 cells (in words) (RAW 264.7 cells; tested concentrations of Table 1 (128–16 μg.ml^−1))
CC(C)C[C@H](NC(=O)[C@H](C)NC(=O)CNC(=O)[C@H](Cc1ccccc1)NC(=O)CN)C(=O)N[C@@H](Cc1ccccc1)C(=O)N[C@@H](CCCCN)C(=O)N[C@@H](Cc1ccccc1)C(=O)N[C@@H](CC(C)C)C(=O)N[C@@H](C)C(=O)N[C@@H](CCCCN)C(=O)N[C@@H](CCCCN)C(=O)N[C@H](C(=O)N[C@@H](C)C(=O)N[C@@H](CCCCN)C(=O)N[C@H](C(=O)N[C@H](C(=O)N[C@@H](C)C(=O)N[C@@H](CCCCN)C(N)=O)C(C)C)[C@@H](C)O)C(C)C [Peptide R1a] (H-GFGALFKFLAKKVAKTVAK-NH2) | 63% | high toxicity | 15.81 µM (≈ 32 µg/mL) | 31.63 µM (≈ 64 µg/mL) | 15.81 µM (≈ 32 µg/mL) | 15.81 µM (≈ 32 µg/mL) | – | – | – | – | – | –
CC(C)C[C@H](NC(=O)[C@H](C)NC(=O)CNC(=O)[C@H](Cc1ccccc1)NC(=O)CN)C(=O)N[C@@H](Cc1ccccc1)C(=O)N[C@@H](CCCCN)C(=O)N[C@@H](Cc1ccccc1)C(=O)N[C@@H](CC(C)C)C(=O)N[C@@H](C)C(=O)N[C@@H](CCCCN)C(=O)N[C@@H](CCCCN)C(=O)N[C@H](C(=O)N[C@@H](C)C(=O)N[C@@H](CCCCN)C(=O)N[C@H](C(=O)N[C@H](C(=O)N[C@@H](C)C(N)=O)C(C)C)[C@@H](C)O)C(C)C [Peptide R1b] (H-GFGALFKFLAKKVAKTVA-NH2) | – | – | 16.88 µM (≈ 32 µg/mL) | 33.77 µM (≈ 64 µg/mL) | 33.77 µM (≈ 64 µg/mL) | 33.77 µM (≈ 64 µg/mL) | 67.54 µM (≈ 128 µg/mL) | 58% | high toxicity | – | – | –
CC(C)C[C@H](NC(=O)[C@H](C)NC(=O)CNC(=O)[C@H](Cc1ccccc1)NC(=O)CN)C(=O)N[C@@H](Cc1ccccc1)C(=O)N[C@@H](CCCCN)C(=O)N[C@@H](Cc1ccccc1)C(=O)N[C@@H](CC(C)C)C(=O)N[C@@H](C)C(=O)N[C@@H](CCCCN)C(=O)N[C@@H](CCCCN)C(=O)N[C@H](C(=O)N[C@@H](C)C(=O)N[C@@H](CCCCN)C(=O)N[C@@H](C)C(=O)N[C@H](C(=O)N[C@@H](C)C(N)=O)C(C)C)C(C)C [Peptide R2b] (H-GFGALFKFLAKKVAKAVA-NH2) | – | – | 34.31 µM (≈ 64 µg/mL) | 17.15 µM (≈ 32 µg/mL) | 17.15 µM (≈ 32 µg/mL) | 17.15 µM (≈ 32 µg/mL) | 34.31 µM (≈ 64 µg/mL) | – | – | below 50% | above 50% | high toxicity
